Entries after “also recorded” stand apart in the source; their conditions may differ. Residues, ends and D or L forms follow the SMILES beside them. No end group written: not given here. *: point of attachment. Cbz = O=C(OCc1ccccc1)*; CH2F = FC*
Tests used:
[1] = tested on: hippocampal neurons; assay: Toxicity of transduced peptides to neurons in primary hippocampal cultures (NeuN immunostaining, quantitative image analysis); format: cell-based; conditions: for NeuN-immunoreactive (neuronal) population: 10 μM peptide
Protocol: (§1) Hippocampal or cortical neurons derived from 17-day old rat embryos were plated in modified minimum essential media (MEM-PAK) supplemented with 5% horse serum. Three days later, the cultures were treated with 10 μM cytosine arabinoside (AraC). Twenty-four h later the cells were treated with the peptide conjugates and incubated for an additional 24 or 48 h. Cells were incubated in the presence of 50 μM of the general caspase inhibitor BOC-Asp(Ome)-FMK (BAF) for 30 min prior to addition of peptides or with an equivalent volume of dimethylsulfoxide (DMSO) and then maintained in the presence of the same concentration of the inhibitor for the duration of the experiment. In all experiments involving Aβ, a 1 mM Aβ42 stock solution was used that had been incubated at 37° C. for 48 h and then stored at 4° C. to allow for the formation of Aβ fibrils. Aβ42 was purchased from AnaSpec (San Jose, Calif.).
(§2) Peptides were synthesized and purified at the Stanford University Protein and Nucleic Acid (PAN) Facility. All peptide stocks were solubilized in water at 1 or 10 mM concentration. […] A control peptide used was a fusion of the human immunodeficiency virus-1 TAT protein (HIV-TAT) delivery peptide sequence (Hileman et al., FEBS Lett. 415:145-154 (1997) and the first helix of the p75 receptor intracellular domain.
Hippocampal cultures were fixed in 4% paraformaldehyde in 1× phosphate-buffered saline (PBS) for 20 min at room temperature (RT). Cells were then rinsed in 1× PBS and then washed once in 1× Tris-buffered saline (TBS) followed by blocking in 10% donkey serum (Jackson ImmunoResearch Labs, West Grove, Pa.) with 0.1% Triton X-100 in 1×TBS for 1 h at RT. Cultures were incubated overnight in the presence of rabbit anti-GFAP (Sigma, St. Louis) at 1:800 dilution and mouse anti-NeuN (Chemicon, Temecula, Calif.) at 1:100 at 4° C. Negative controls were incubated in 2 mg/ml rabbit and mouse preinimune IgGs (Sigma, St. Louis). All primary antibodies were diluted in 1×TBS containing 10% donkey serum. Cultures were washed for 90 min in 4 changes of 1×TBS and incubated in the presence of donkey anti-rabbit IgG conjugated to Cy3 and donkey anti-mouse IgG conjugated to FITC (Jackson ImmunoResearch Laboratories, Inc., West Grove, Pa.), at 1:250 and 1:400, respectively, in 1×TBS containing 1% donkey serum for 1 h at RT. Cells were washed for 90 min in 4 changes of 1×TBS and mounted in VectaShield-DAPI mounting medium (Vector Laboratories, Burlingame, Calif.). Images were acquired using Nikon Eclipse-800 microscope and Optronics MagnaFire camera and software, and analyzed using Compix Simple PCI software. The total surface area corresponding to red and green fluorescence in each confocal image was determined by image analysis using Simple PCI software (Compix, Inc., Philadelphia).
(§3) To investigate whether this was due to a greater sensitivity of neurons than glial cells to DP-APPC31-induced death, 3-day-old rat hippocampal cultures were exposed to increasing concentrations of DP-APPC31 or control DP peptide and fixed 48 h after transduction. The fixed cultures were then immunostained with antibodies specific for GFAP (red) and NeuN (green). A quantitative assessment of the total area of red and green fluorescence present in low-magnification confocal images of representative fields obtained from three independent experiments was performed using a digital image analysis system (SimplePCl, Compix, Inc, Philadelphia).
APLP1C31 induces death in primary hippocampal cultures. […] If this event occurs in vivo, APLP1 would have the potential to generate a pro-apoptotic C-terminal peptide homologous to APPC31. To deterinine whether the peptide generated by caspase cleavage of APLP1 is toxic, a fusion of APLP1C31 to the Antennapedia delivery peptide (DP-APLP1C31) was generated and assayed in protein transduction experiments. […]

[2] = tested on: primary hippocampal cultures; assay: Viability of primary hippocampal cultures by MTT assay; format: cell-based, rat; conditions: increasing concentrations
Protocol: as §1
as §2, with “domain. […]” for “domain.”

[3] = tested on: primary hippocampal cultures; assay: Hoechst 33342 staining of condensed, fragmented (apoptotic) nuclei in primary hippocampal cultures; format: cell-based, rat; conditions: for percentage of apoptotic nuclei (Hoechst 33342): cultures preincubated with 5 μM Aβ for 24 h, then exposed to C-C31 or not
Protocol: as §1
(§4) Primary hippocampal or cortical neuronal culturesor 293 cells transduced with the different penetratin-peptide conjugates were assayed for viability at 24 and 48 h after transduction by trypan blue exclusion or by conversion of 3-[4,5-Dimethylthiazol-2-yl]-2,5-diphenyltetrazolium bromide; Thiazolyl blue (MTT, Sigma, St. Louis) to formazan by dehydrogenase enzymes (MTT, Sigma, St. Louis) and by the LIVE/DEAD assay (Molecular Probes, Eugene, Oreg.), which distinguishes live cells by the presence of intracellular esterase activity, which results in the conversion of the non-fluorescent cell permeant calcein-AM to the intensely green fluorescent calcein. Calcein is retained witlin live cells. Ethidium homodimer-1 (EthD-1) enters cells with damaged membranes and becomes intensely fluorescent when bonding to nucleic acids. EthD-1 is excluded by the intact plasma membrane of live cells. Media were removed and replaced by 4 μM EthD-1 and 2 μM calcein in PBS. […]
(§5) Aβ exacerbates the sensitivity of hippocampal cultures to C31 toxicity. […] Thirty-six hours later, the cultures were evaluated by the LIVE/DEAD assay. […] Cells were stained with Hoechst 33342 and scored for nuclear condensation.

[4] = tested on: primary hippocampal cultures; assay: LIVE/DEAD assay (calcein / EthD-1) of primary hippocampal cultures; format: cell-based, rat; conditions: for toxicity of Aβ alone: 36 hours
Protocol: as §1, §4, §5

[5] = tested on: glial cells; assay: Toxicity of transduced peptides to glial cells in primary hippocampal cultures (GFAP immunostaining, quantitative image analysis); format: cell-based, rat
Protocol: as §1
(§6) Peptides were synthesized and purified at the Stanford University Protein and Nucleic Acid (PAN) Facility. All peptide stocks were solubilized in water at 1 or 10 mM concentration. […]
Hippocampal cultures were fixed in 4% paraformaldehyde in 1× phosphate-buffered saline (PBS) for 20 min at room temperature (RT). […] Images were acquired using Nikon Eclipse-800 microscope and Optronics MagnaFire camera and software, and analyzed using Compix Simple PCI software. The total surface area corresponding to red and green fluorescence in each confocal image was determined by image analysis using Simple PCI software (Compix, Inc., Philadelphia).
as §3, with “The fixed cultures were then immunostained with antibodies specific for GFAP (red) and NeuN (green).” left out, “Philadelphia). […]” for “Philadelphia).”

[6] = tested on: N2a neuroblastoma cells; assay: Annexin V-FITC staining of transfected N2a cells; format: cell-based, mouse; conditions: for relative risk (RR) of annexin V-FITC staining with expression / annexin V-positive among construct-positive cells: expression by transfection; for annexin V-positive among construct-positive cells: no tamoxifen or staurosporine, 24 h
Protocol: Mouse N2a neuroblastoma cells were grown at 37° C. and 5% CO2 in […] Dulbecco's modified Eagle's medium and 45% OptiMEM I (Life Technologies) supplemented with 10% fetal bovine serum and 2 mM glutamine. Plasmid constructs were introduced into the N2a cells with the LipofectAMINE plus transfection reagent (Life Technologies) according to the manufacturer's instructions.
N2a cells were plated on glass cover slips treated with polylysine and were transfected as described above. At 24 h after transfection, cells were directly stained with annexin V-FITC for apoptosis in tissue culture media, according to the manufacturer's instructions (annexin V-FITC Apoptosis Detection Kit; Calbiochem, La Jolla, Calif.). After being stained with annexin V-FITC, cells were fixed for 20 min in 4% parafoimaldehyde in phosphate-buffered saline and permeabilized in 0.5% Triton X-100 in phosphate-buffered saline for 5 min. After being blocked in 5% BSA in phosphate-buffered saline, the cells were incubated for 1 h at room temperature with CT15, diluted 1:2,000. In parallel, cells were stained with propidium iodide after annexin V staining and paraformaldehyde fixation but without permeabilization to verify membrane integrity; the combination of amnexin V staining and membrane integrity indicated apoptosis without secondary necrosis. The primary antibody was detected with Texas Red®-conjugated secondary antibody against rabbit (Molecular Probes, Eugene, Oreg.). Negative controls, which included preimmune serum and cells transfected with pcDNA3 (mock transfection), were assayed in parallel using the protocol described above. The cells were analyzed by confocal nmcroscopy using a BioRad MRC-1024 system. Cells in five random fields were counted for each slide, in duplicate for each condition. The number of cells positive and negative for APP or C31 and apoptosis (annexin V-FITC) were determined, and relative risk was calculated (RR=p1/p2)=concordant staining [(+/+) times (−/−)] divided by discordant staining [(+/−) times (−/+)].
Double-labeling of APP and annexin V in N2a cells after transfection was performed. N2a cells were transfected with either APP or C31 followed by staining with annexin V-FITC to visualize apoptotic cells. Transfected cells were immunolocalized with CT15 followed by Texas Red conjugated secondary antibody to visualize APP or C31 expression. When expressed in N2a cells, C31 but not APP is associated with apoptosis. A high proportion of C31 transfected cells are positive for amnexin V-FITC (green outline of the cell; RR=6.3), whereas in APP-expressing cells, annexin V-FITC staining is sparse (RR=0.77). In control cells transfected with pcDNA3 (mock transfection; control), there is no staining with annexin V-FITC and essentially no staining of endogenous APP at this antibody dilution. Images are representations of four different fields of view of each of three separate experiments.

[7] = tested on: 293T human embryonic kidney cells; assay: Toxicity of C31 peptide to 293T cells; format: cell-based
Protocol: as §2, §4

[8] = tested on: primary hippocampal cultures; assay: Viability of primary hippocampal cultures by trypan blue exclusion; format: cell-based, rat
Protocol: as §1, §6, §5

[9] = tested on: PTB domain of Fe65; assay: Binding of C31 to the PTB domain of Fe65
Source text: Binding assays can be used to confirm this observation with respect to the C31 peptide derived from APLP1.

[10] = synthetic peptide delivered into primary cultures

COC(=O)C[C@H](NC(=O)OC(C)(C)C)C(=O)CF [BAF, BOC-Asp(Ome)-FMK, reference compound]
effect of caspase inhibitor on DP-APLP1C31 toxicity ([1]; BAF 50 μM): delayed DP-APLP1C31 toxicity | effect of caspase inhibitor on DP-APPC31 toxicity ([1]; BAF 50 μM, DP-APPC31 10 μM): delayed the toxicity; also recorded: blocked the toxicity

CC[C@H](C)[C@H](NC(=O)[C@H](CCCCN)NC(=O)[C@@H](NC(=O)[C@H](CCC(N)=O)NC(=O)[C@H](CCCNC(=N)N)NC(=O)[C@@H](N)CSSC[C@H](N)C(=O)N[C@@H](C)C(=O)N[C@@H](C)C(=O)N[C@H](C(=O)N[C@H](C(=O)N1CCC[C@H]1C(=O)N[C@@H](CCC(=O)O)C(=O)N[C@@H](CCC(=O)O)C(=O)N[C@@H](CCCNC(=N)N)C(=O)N[C@@H](Cc1c[nH]cn1)C(=O)N[C@@H](CC(C)C)C(=O)N[C@@H](CO)C(=O)N[C@@H](CCCCN)C(=O)N[C@@H](CCSC)C(=O)N[C@@H](CCC(N)=O)C(=O)N[C@@H](CCC(N)=O)C(=O)N[C@@H](CC(N)=O)C(=O)NCC(=O)N[C@@H](Cc1ccc(O)cc1)C(=O)N[C@@H](CCC(=O)O)C(=O)N[C@@H](CC(N)=O)C(=O)N1CCC[C@H]1C(=O)N[C@H](C(=O)N[C@@H](Cc1ccc(O)cc1)C(=O)N[C@@H](CCCCN)C(=O)N[C@@H](Cc1ccccc1)C(=O)N[C@@H](Cc1ccccc1)C(=O)N[C@@H](CCC(=O)O)C(=O)N[C@@H](CCC(N)=O)C(=O)N[C@@H](CCSC)C(=O)N[C@@H](CCC(N)=O)C(=O)N[C@@H](CC(N)=O)C(=O)O)[C@@H](C)O)[C@@H](C)O)C(C)C)[C@@H](C)CC)C(=O)N[C@@H](Cc1c[nH]c2ccccc12)C(=O)N[C@@H](Cc1ccccc1)C(=O)N[C@@H](CCC(N)=O)C(=O)N[C@@H](CC(N)=O)C(=O)N[C@@H](CCCNC(=N)N)C(=O)N[C@@H](CCCNC(=N)N)C(=O)N[C@@H](CCSC)C(=O)N[C@@H](CCCCN)C(=O)N[C@@H](Cc1c[nH]c2ccccc12)C(=O)N[C@@H](CCCCN)C(=O)N[C@@H](CCCCN)C(=O)O [DP-APPC31]
number of viable cells converting MTT into formazan [2]: reduced the number of viable cells | NeuN-immunoreactive (neuronal) population [1]: significantly reduced; also recorded: markedly reduced | NeuN-immunoreactive (neuronal) population ([1]; listed as C-C31): marked decrease | percentage of apoptotic nuclei (Hoechst 33342) [3]: 72% | percentage of condensed, fragmented nuclei, concentration dependence ([3]; increasing concentrations, 30 hours after transduction): increase in the percentage of condensed, fragmented nuclei | viability of hippocampal neuronal cultures ([4]; 10 μM, 24 h after transduction): marked decrease in viability | glial (GFAP) population ([5]; 10 μM peptide, 48 h after transduction): significantly reduced

CC(C)[C@H](NC(=O)OCc1ccccc1)C(=O)N[C@@H](C)C(=O)N[C@@H](CC(=O)O)C(=O)CF [zVAD.fmk, benzoxycarbonyl-Val-Ala-Asp-CH2F, reference compound] (Cbz-Val-Ala-Asp-CH2F)
effect on annexin V staining of C31 transfected cells ([6]; zVAD.fmk treatment): decreased annexin V staining of C31 transfected cells to control levels

AAVTPEERHLSKMQQNGYENPTYKFFEQMQN [C31]
CC50 [7]: 50 to 100 µM | CC50 ([1]; primary culture, read-out: LC50 for hippocampal neurons): 1 to 2 µM | relative risk (RR) of annexin V-FITC staining with expression [6]: 6.3 | annexin V-positive among construct-positive cells [6]: 76±10% | CC50 ([8]; preincubation with 5 μM Aβ for 24 h, then transduction in absence of Aβ, read-out: LC50 in primary cultures pre-exposed to sublethal fibrillar Aβ): < 0.5 µM | binding to the PTB domain of Fe65 [9]: binds to the PTB domain of Fe65 | CC50 ([5]; rat, astrocytes (glial cells in primary hippocampal cultures)): 10 to 25 µM

APP: wild-type human APP695 expressed from pcDNA3 by transfection
relative risk (RR) of annexin V-FITC staining with expression [6]: 0.77 | annexin V-positive among construct-positive cells [6]: 13±5%

Aβ: Aβ42 purchased from AnaSpec, stock incubated to allow formation of Aβ fibrils [reference compound]
percentage of apoptotic nuclei (Hoechst 33342) [3]: ~9% | toxicity of Aβ alone ([4]; 50 μM): decrease the number of viable cells in the culture substantially | toxicity of Aβ alone ([4]; concentrations up to 25 μM): No measurable toxicity | dead cells with Aβ alone ([8]; 5 μM Aβ): did not increase the number of dead cells

PMLTLEEQQLRELQRHGYENPTYRFLEERP [APLP1-C31]
LD50 for neurons [1, 10]: around 3 micromolar | LD50 for glial cells [5, 10]: 35 to 40 µM

Source: patent US20040192889A1, “Cytotoxic peptides and peptidomimetics based thereon, and methods for use thereof” (priority 2001, published 2004)
